Reference: patent publication EP4722207A1, “OXOISOINDOLINYL-SUBSTITUTED TETRAHYDROPYRIMIDINEDIONE DERIVATIVE AND USE THEREOF” (Gluetacs Therapeutics (Shanghai) Co., Ltd., priority 2023, dated 2024)

Tests used:
[1] = biological target: T1, IKZF2 (Homo sapiens, UniProt Q96SW2+Q9UKS7); test: Western-blot assay, substrate protein degradation in hPBMCs: IKZF2; type: cell-based; details: compounds at 50 nM and 500 nM, 24 hours
T1 construct: effects of the compounds of the present disclosure on the expression of target proteins in cells; endogenous in cells; host or cells: human PBMCs (hPBMCs)
T1 sequence (Q9UKS7 whole entry): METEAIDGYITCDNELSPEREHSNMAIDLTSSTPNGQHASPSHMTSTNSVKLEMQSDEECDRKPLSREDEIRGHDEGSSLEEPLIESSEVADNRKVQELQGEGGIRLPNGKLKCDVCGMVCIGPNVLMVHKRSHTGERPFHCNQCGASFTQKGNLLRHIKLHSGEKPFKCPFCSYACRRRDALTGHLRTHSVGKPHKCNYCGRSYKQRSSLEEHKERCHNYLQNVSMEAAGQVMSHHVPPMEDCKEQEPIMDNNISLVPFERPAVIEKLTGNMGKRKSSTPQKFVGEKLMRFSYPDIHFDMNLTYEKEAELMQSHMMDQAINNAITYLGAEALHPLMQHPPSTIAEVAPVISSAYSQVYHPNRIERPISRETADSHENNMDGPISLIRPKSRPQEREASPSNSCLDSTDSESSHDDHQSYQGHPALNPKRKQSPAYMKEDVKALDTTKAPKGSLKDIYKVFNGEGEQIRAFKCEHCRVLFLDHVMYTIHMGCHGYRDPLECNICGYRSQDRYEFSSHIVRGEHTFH
T1 sequence (Q96SW2 whole entry): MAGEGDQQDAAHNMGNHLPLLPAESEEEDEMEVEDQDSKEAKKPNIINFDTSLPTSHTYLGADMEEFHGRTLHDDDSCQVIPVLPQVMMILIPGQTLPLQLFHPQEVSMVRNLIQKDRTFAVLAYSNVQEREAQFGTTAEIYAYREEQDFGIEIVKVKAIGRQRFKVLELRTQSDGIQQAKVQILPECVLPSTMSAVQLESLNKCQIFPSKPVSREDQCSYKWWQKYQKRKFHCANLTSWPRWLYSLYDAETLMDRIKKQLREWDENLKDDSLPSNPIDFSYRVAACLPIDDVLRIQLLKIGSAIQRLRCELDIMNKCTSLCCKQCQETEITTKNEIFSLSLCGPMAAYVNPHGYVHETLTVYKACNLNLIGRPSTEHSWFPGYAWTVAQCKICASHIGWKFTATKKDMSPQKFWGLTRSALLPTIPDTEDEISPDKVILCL
T1 sequence (Q16531 whole entry partner): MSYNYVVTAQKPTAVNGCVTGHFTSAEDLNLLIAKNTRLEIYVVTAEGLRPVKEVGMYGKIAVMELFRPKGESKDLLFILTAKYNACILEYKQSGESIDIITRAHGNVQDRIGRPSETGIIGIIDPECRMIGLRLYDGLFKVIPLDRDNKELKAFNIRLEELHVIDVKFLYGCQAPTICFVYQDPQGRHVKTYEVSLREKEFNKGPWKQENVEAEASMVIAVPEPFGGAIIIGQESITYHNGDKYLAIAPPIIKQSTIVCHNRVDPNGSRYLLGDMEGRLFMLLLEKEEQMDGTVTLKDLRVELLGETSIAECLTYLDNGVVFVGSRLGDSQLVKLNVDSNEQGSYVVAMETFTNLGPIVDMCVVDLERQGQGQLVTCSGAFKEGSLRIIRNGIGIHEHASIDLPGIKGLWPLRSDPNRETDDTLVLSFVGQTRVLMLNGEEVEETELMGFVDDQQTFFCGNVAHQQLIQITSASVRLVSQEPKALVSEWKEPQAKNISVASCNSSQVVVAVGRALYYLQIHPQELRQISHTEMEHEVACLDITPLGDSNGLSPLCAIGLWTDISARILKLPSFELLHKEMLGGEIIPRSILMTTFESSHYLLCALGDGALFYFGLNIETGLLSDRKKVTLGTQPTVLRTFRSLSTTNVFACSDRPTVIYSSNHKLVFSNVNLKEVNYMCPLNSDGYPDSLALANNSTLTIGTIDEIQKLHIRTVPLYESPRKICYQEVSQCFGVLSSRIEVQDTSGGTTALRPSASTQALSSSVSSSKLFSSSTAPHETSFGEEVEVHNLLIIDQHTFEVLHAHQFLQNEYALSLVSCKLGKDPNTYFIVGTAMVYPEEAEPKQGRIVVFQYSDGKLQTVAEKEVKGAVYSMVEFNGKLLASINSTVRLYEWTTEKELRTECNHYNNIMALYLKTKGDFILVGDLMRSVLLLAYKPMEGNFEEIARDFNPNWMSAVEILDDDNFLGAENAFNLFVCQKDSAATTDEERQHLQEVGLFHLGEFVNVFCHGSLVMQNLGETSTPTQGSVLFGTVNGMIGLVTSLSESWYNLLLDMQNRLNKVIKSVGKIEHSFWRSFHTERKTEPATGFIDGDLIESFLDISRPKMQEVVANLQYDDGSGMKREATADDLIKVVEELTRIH

[2] = tested on: MM.1S; test: Cell viability assay (CellTiter-Meiluncell Luminescent), tumor cell proliferation, MM.1S; details: Homo sapiens, MM1.S, 96 h, read-out: inhibitory activity (IC50, nM) against tumor cells proliferation, MM.1S
Experimental: The tumor cells used herein were cultured in a cell culture medium listed in table 2 at 37°C in an incubator with 5% CO2. Prior to experimentation, all cell lines used were correctly identified by STR profiling, and tested negative for mycoplasma contamination using a mycoplasma detection kit through routine screenings.
On the following day, the test compounds of the present disclosure were subjected to serial dilution. […] Subsequently, 0.5 µL of the test compound dilution was transferred into the 96-well plate containing the cells, with each well containing 100 µL of cell culture medium. […] Into the 96-well plate, the diluted test compounds and corresponding detection reagents were added, resulting in final test compound concentrations of 500 nM and 10 nM, respectively. The experimental procedure is described below using the diluted 2 µM test compound as an example.
(§1) After the cells were treated with the compounds of the present disclosure for a specified period, the cell viability assay reagent was added to the culture medium according to the kit's instructions to determine cell viability. […] All controls were treated using the same procedure as the compounds of the present disclosure. The growth inhibition curves for the compounds of the present disclosure were plotted using Prism GraphPad software, and the IC50 values were calculated therefrom.

[3] = biological target: T2, WEE1 (Homo sapiens, UniProt P30291+Q96SW2); test: Western-blot assay, substrate protein degradation in hPBMCs: WEE1; type: cell-based; details: compounds at 50 nM and 500 nM, 24 hours
T2 construct: effects of the compounds of the present disclosure on the expression of target proteins in cells; endogenous in cells; host or cells: human PBMCs (hPBMCs)

[4] = tested on: Jurkat; test: Cell viability assay (CellTiter-Meiluncell Luminescent), tumor cell proliferation, Jurkat; details: Homo sapiens, 96 h, read-out: inhibitory activity (IC50, nM) against tumor cells proliferation, Jurkat
Experimental: (§2) On the following day, the test compounds of the present disclosure were subjected to serial dilution. […] Subsequently, 0.5 µL of the test compound dilution was transferred into the 96-well plate containing the cells, with each well containing 100 µL of cell culture medium. […] Into the 96-well plate, the diluted test compounds and corresponding detection reagents were added, resulting in final test compound concentrations of 500 nM and 10 nM, respectively.
as §1

[5] = biological target: T3, GSPT1 (Homo sapiens, UniProt P15170+Q96SW2); test: Western-blot assay, substrate protein degradation in hPBMCs: GSPT1; type: cell-based; details: compounds at 50 nM and 500 nM, 24 hours
T3 construct: effects of the compounds of the present disclosure on the expression of target proteins in cells; endogenous in cells; host or cells: human PBMCs (hPBMCs)
T3 sequence (P15170 whole entry): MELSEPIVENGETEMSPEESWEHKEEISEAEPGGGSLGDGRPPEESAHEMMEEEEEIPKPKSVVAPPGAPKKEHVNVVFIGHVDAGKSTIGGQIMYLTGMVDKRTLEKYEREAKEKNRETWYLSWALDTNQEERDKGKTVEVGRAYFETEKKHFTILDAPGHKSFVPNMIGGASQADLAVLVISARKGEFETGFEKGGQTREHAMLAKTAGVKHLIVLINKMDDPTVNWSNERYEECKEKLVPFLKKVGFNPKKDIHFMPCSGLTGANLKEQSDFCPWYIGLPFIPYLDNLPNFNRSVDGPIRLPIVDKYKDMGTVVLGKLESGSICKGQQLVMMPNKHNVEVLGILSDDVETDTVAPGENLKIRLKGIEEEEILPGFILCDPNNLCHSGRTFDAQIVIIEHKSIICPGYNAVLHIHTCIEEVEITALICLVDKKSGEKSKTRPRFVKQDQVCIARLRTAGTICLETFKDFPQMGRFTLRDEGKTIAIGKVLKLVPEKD
T3 sequence (Q96SW2 whole entry): as the sequence (Q96SW2 whole entry) above
T3 sequence (Q16531 whole entry partner): as the sequence (Q16531 whole entry partner) above

[6] = biological target: T4, IKZF3 (Homo sapiens, UniProt Q96SW2+Q9UKT9); test: Western-blot assay, substrate protein degradation in hPBMCs: IKZF3; type: cell-based; details: compounds at 50 nM and 500 nM, 24 hours
T4 construct: effects of the compounds of the present disclosure on the expression of target proteins in cells; endogenous in cells; host or cells: human PBMCs (hPBMCs)
T4 sequence (Q9UKT9 whole entry): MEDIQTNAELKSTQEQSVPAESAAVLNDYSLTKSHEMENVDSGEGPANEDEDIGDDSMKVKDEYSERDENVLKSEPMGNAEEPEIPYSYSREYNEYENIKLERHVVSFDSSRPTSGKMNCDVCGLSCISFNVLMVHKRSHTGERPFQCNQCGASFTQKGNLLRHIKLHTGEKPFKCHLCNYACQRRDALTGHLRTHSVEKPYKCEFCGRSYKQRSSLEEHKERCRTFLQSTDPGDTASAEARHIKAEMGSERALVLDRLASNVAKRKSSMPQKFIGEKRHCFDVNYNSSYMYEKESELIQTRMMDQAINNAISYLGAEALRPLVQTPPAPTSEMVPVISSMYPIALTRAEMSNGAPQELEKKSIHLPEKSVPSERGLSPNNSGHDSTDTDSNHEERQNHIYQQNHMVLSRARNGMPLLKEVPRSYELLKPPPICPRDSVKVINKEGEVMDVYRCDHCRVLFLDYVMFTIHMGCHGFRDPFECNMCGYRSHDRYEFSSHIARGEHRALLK
T4 sequence (Q96SW2 whole entry): as the sequence (Q96SW2 whole entry) above
T4 sequence (Q16531 whole entry partner): as the sequence (Q16531 whole entry partner) above

[7] = biological target: T5, IKZF1 (Homo sapiens, UniProt Q13422+Q96SW2); test: Western-blot assay, substrate protein degradation in hPBMCs: IKZF1; type: cell-based; details: compounds at 50 nM and 500 nM, 24 hours
T5 construct: effects of the compounds of the present disclosure on the expression of target proteins in cells; endogenous in cells; host or cells: human PBMCs (hPBMCs)
T5 sequence (Q13422 whole entry): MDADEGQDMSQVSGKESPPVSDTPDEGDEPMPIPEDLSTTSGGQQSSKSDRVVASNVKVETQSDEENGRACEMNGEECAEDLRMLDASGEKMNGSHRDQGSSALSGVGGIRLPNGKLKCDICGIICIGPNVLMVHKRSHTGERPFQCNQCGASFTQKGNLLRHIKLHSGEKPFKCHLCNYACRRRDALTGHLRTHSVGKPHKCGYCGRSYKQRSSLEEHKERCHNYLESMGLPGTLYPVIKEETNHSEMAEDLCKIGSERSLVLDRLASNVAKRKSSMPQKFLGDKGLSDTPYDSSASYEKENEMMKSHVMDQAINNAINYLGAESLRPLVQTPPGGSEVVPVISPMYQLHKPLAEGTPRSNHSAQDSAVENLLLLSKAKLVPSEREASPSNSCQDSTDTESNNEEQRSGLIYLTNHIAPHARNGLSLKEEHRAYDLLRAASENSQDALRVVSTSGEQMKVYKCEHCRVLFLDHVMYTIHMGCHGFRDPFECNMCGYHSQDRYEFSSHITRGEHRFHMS
T5 sequence (Q96SW2 whole entry): as the sequence (Q96SW2 whole entry) above
T5 sequence (Q16531 whole entry partner): as the sequence (Q16531 whole entry partner) above

[8] = biological target: T6, CK1α (Homo sapiens, UniProt P48729+Q96SW2); test: Western-blot assay, substrate protein degradation in hPBMCs: CK1α; type: cell-based; details: compounds at 50 nM and 500 nM, 24 hours
T6 construct: effects of the compounds of the present disclosure on the expression of target proteins in cells; endogenous in cells; host or cells: human PBMCs (hPBMCs)
T6 sequence (P48729 whole entry): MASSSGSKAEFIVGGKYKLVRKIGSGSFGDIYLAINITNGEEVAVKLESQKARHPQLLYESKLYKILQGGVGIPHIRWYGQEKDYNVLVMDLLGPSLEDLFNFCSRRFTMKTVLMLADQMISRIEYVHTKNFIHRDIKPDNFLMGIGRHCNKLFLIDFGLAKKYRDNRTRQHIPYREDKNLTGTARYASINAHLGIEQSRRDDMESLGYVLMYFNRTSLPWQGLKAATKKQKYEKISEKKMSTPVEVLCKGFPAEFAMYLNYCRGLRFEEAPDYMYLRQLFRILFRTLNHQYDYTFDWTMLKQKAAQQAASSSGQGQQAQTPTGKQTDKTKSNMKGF
T6 sequence (Q96SW2 whole entry): as the sequence (Q96SW2 whole entry) above
T6 sequence (Q16531 whole entry partner): as the sequence (Q16531 whole entry partner) above

[9] = tested on: MGC803; test: Cell viability assay (CellTiter-Meiluncell Luminescent), tumor cell proliferation, MGC803; details: Homo sapiens, MGC-803, 96 h, read-out: inhibitory activity (IC50, nM) against tumor cells proliferation, MGC803
Experimental: as §2, §1

Compound	IKZF2 substrate protein remaining % [1]	IC50 [2]	WEE1 substrate protein remaining % [3]	IC50 [4]	GSPT1 substrate protein remaining % [5]	IKZF3 substrate protein remaining % [6]	IKZF1 substrate protein remaining % [7]	CK1α substrate protein remaining % [8]	IC50 [9]
O=C1CCN(N2Cc3cc(CN4CCC(N(c5ccccc5)c5ccccc5)CC4)ccc3C2=O)C(=O)N1 [GT-04939, 1-(5-((4-(diphenylamino)piperidin-1-yl)methyl)-1-oxoisoindolin-2-yl)dihydropyrimidine-2,4(1H,3H)-dione]	A ("A" is defined as 0% ≤ substrate protein remaining % ≤ 80%)	10 to 50 nM	A ("A" is defined as 0% ≤ substrate protein remaining % ≤ 80%)	100 to 300 nM	A ("A" is defined as 0% ≤ substrate protein remaining % ≤ 80%)	A ("A" is defined as 0% ≤ substrate protein remaining % ≤ 80%)	A ("A" is defined as 0% ≤ substrate protein remaining % ≤ 80%)	A ("A" is defined as 0% ≤ substrate protein remaining % ≤ 80%)	100 to 300 nM
O=C1CCN(N2Cc3cc(CN4CCC(N(c5ccccc5)c5ccccn5)CC4)ccc3C2=O)C(=O)N1 [GT-04940, 1-(1-oxo-5-((4-(phenyl(pyridin-2-yl)amino)piperidin-1-yl)methyl)isoindolin-2-yl)dihydropyrimidine-2,4(1H,3H)-dione]	A ("A" is defined as 0% ≤ substrate protein remaining % ≤ 80%)	50 to 100 nM	A ("A" is defined as 0% ≤ substrate protein remaining % ≤ 80%)	100 to 300 nM	A ("A" is defined as 0% ≤ substrate protein remaining % ≤ 80%)	A ("A" is defined as 0% ≤ substrate protein remaining % ≤ 80%)	A ("A" is defined as 0% ≤ substrate protein remaining % ≤ 80%)	A ("A" is defined as 0% ≤ substrate protein remaining % ≤ 80%)	100 to 300 nM
O=C1CCN(N2Cc3cc(CN4CCC(Nc5ccccc5-c5ccc(Cl)cc5)CC4)ccc3C2=O)C(=O)N1 [GT-04943, 1-(5-((4-((4'-chloro-[1,1'-biphenyl]-2-yl)amino)piperidin-1-yl)methyl)-1-oxoisoindolin-2-yl)dihydropyrimidine-2,4(1H,3H)-dione]	A ("A" is defined as 0% ≤ substrate protein remaining % ≤ 80%)	10 to 50 nM	A ("A" is defined as 0% ≤ substrate protein remaining % ≤ 80%)	100 to 300 nM	A ("A" is defined as 0% ≤ substrate protein remaining % ≤ 80%)	A ("A" is defined as 0% ≤ substrate protein remaining % ≤ 80%)	A ("A" is defined as 0% ≤ substrate protein remaining % ≤ 80%)	B ("B" is defined as 80%< substrate protein remaining %≤ 100%)	100 to 300 nM
